Laboratory results published in PubChem BioAssay (NCI).
Where “and” joins values, the source holds several entries; their conditions need not be identical. Identical values can stand only once.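 Cells were grown in 96-well plates and exposed to each compound for 48 hours at five concentrations; endpoints were interpolated linearly between bracketing concentrations, or set to the highest concentration if not reached. GI50 is the concentration that inhibits growth by half. TGI is the concentration that stops growth completely.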

Columns and labels:
Test in all cases: growth of human tumour cells (NCI), 48 h
RPMI-8226 leukemia = test system: RPMI-8226 leukemia
SF-268 CNS = test system: SF-268 CNS
MCF7 breast = test system: MCF7 breast
TK-10 renal = test system: TK-10 renal
SK-MEL-2 melanoma = test system: SK-MEL-2 melanoma
SNB-75 CNS = test system: SNB-75 CNS
K-562 leukemia = test system: K-562 leukemia
NCI-H23 lung = test system: NCI-H23 lung
LOX IMVI melanoma = test system: LOX IMVI melanoma
HL-60(TB) leukemia = test system: HL-60(TB) leukemia

Structure (SMILES)	GI50 (RPMI-8226 leukemia)	TGI (RPMI-8226 leukemia)	GI50 (SF-268 CNS)	TGI (SF-268 CNS)	GI50 (MCF7 breast)	TGI (MCF7 breast)	GI50 (TK-10 renal)	TGI (TK-10 renal)	GI50 (SK-MEL-2 melanoma)	TGI (SK-MEL-2 melanoma)	GI50 (SNB-75 CNS)	TGI (SNB-75 CNS)	GI50 (K-562 leukemia)	TGI (K-562 leukemia)	GI50 (NCI-H23 lung)	TGI (NCI-H23 lung)	GI50 (LOX IMVI melanoma)	TGI (LOX IMVI melanoma)	GI50 (HL-60(TB) leukemia)	TGI (HL-60(TB) leukemia)
COc1cc2c(cc1OCCCCOc1cc3c(cc1OC)C(=O)N1CCC[C@H]1CN3)N=C[C@@H]1CCCN1C2=O	0.575 µM	4.84 µM	0.344 µM	4.95 µM	0.346 µM	1.76 µM	1.64 µM	8.38 µM	0.826 µM	> 100 µM	3.58 µM	16.9 µM	0.174 µM	> 37.9 µM	2.22 µM	5.8 µM	1.07 µM	> 32.5 µM	–	–
Cc1cc2c3ccc(C)[n+](C)c3ccc2n1C	1.32 µM	23.3 µM	2.99 µM	15.9 µM	4.07 µM	90 µM	13 µM	> 100 µM	7.56 µM	25 µM	3.15 µM	14.7 µM	1.52 µM	> 100 µM	2.04 µM	29.2 µM	5.05 µM	30.2 µM	1.92 µM	18.7 µM
COc1cc2nc(N3CCCC3)nc(NCC3CCCCC3)c2cc1OC	–	–	1.75 µM	3.45 µM	0.515 µM	2.03 µM	1.73 µM	3.28 µM	1.86 µM	3.51 µM	1.47 µM	2.81 µM	0.334 µM	2.1 µM	1.57 µM	3.07 µM	0.281 µM	0.793 µM	0.505 µM	2.21 µM
C[C@]12CC[C@H]3[C@@H](CCC4=CC(=O)CC[C@@H]43)[C@@H]1CC[C@@H]2OC(=O)CCc1ccccc1	14.6 µM	47 µM	15.1 µM	29.6 µM	15.3 µM	31.1 µM	14.5 µM	33.7 µM	41 µM	> 100 µM	29 µM	> 100 µM	18.8 µM	> 69 µM	19.9 µM	44.1 µM	15.6 µM	29.1 µM	2.41 µM	35.5 µM
Cc1ccc(NC(=O)/C=C/c2ccccc2)c(C(N)=O)c1	2.89 µM	> 100 µM	7.19 µM	> 100 µM	3.15 µM	> 100 µM	17.1 µM	> 100 µM	4.75 µM	31.6 µM	2.62 µM	15.1 µM	1.06 µM	> 100 µM	4.46 µM	> 100 µM	7.87 µM	> 100 µM	1.75 µM	6.7 µM
CC1=C(N2CC2)C(=O)c2nc3n(c2C1=O)CCC3OC(=O)CCl (stereo not given)	–	1.7 µM	–	0.202 µM	–	0.0468 µM	–	0.639 µM	–	0.271 µM	–	0.05 µM	–	1.61 µM	–	0.0825 µM	–	0.117 µM	–	3.18 µM
CN(C)c1ccc(/C=C\c2cccc[n+]2C)cc1	4.44 µM	45.2 µM	5.52 µM	> 100 µM	4.52 µM	> 100 µM	41.1 µM	> 100 µM	20.4 µM	> 100 µM	6.26 µM	49.5 µM	2.22 µM	> 100 µM	4.69 µM	> 100 µM	5.31 µM	36.6 µM	3.09 µM	> 100 µM
C[C@]12CCC3[C@@H](CC[C@@H]4c5nonc5CC[C@]34C)C1CCC(=O)N2 (stereo not given in full)	–	> 100 µM	–	> 100 µM	> 100 µM	> 100 µM	–	> 100 µM	–	> 100 µM	35.2 µM	> 100 µM	–	> 100 µM	–	> 100 µM	–	> 100 µM	–	> 100 µM
CC(CN1CCN(CCOCCO)CC1)CN1c2ccccc2Sc2ccc(Cl)cc21 (stereo not given)	2.19 µM	5.54 µM	4.87 µM	18.4 µM	2.64 µM	6.61 µM	2.31 µM	6.45 µM	1.87 µM	3.63 µM	–	–	1.96 µM	4.18 µM	10.8 µM	24.2 µM	1.74 µM	3.27 µM	1.76 µM	4.01 µM
CC(C)(C)c1n[nH]c(=S)n(/N=C/c2ccc(F)c(Oc3ccccc3)c2)c1=O	32.5 µM	> 100 µM	35.9 µM	> 100 µM	40.5 µM	> 100 µM	22.2 µM	91.4 µM	–	–	32.5 µM	> 100 µM	42.1 µM	> 100 µM	37.7 µM	> 100 µM	28.7 µM	72.2 µM	61.9 µM	> 100 µM
COc1ccc(-c2cc(-c3ccccc3)nc(SCCCC(=O)NO)n2)cc1	0.454 µM	> 22.9 µM	1.66 µM	5.16 µM	1.9 µM	10 µM	0.369 µM	9.63 µM	2.3 µM	9.26 µM	0.964 µM	4.95 µM	0.762 µM	18 µM	1.51 µM	4.75 µM	0.24 µM	1.95 µM	1.18 µM	7 µM
Cc1ccc(C(=O)Nc2cccc(C(F)(F)F)c2)cc1Nc1nc(-c2cccnc2)nc2c1cnn2C	1.63 µM	6.04 µM	4.01 µM and 2.91 µM	21.9 µM and > 10 µM	2.42 µM and 1.98 µM	7.65 µM and 6.24 µM	5.9 µM and 2.1 µM	36.6 µM and 6.42 µM	0.721 µM and 0.367 µM	5.03 µM and 2.07 µM	2.83 µM and 2.17 µM	11.1 µM and 6.05 µM	0.0359 µM and 0.0309 µM	> 100 µM	1.81 µM and 1.3 µM	12.8 µM and 9.54 µM	1.4 µM and 0.704 µM	3.72 µM and 2.61 µM	0.423 µM and 0.273 µM	3.59 µM and 3.57 µM
O=C1C=C(Br)c2c(-c3ccccc3)oc3cccc1c23	–	> 79 µM	–	> 81.6 µM	–	> 100 µM	–	82.1 µM	–	> 100 µM	–	42.5 µM	–	> 86.8 µM	–	> 100 µM	–	> 65.4 µM	–	> 63.2 µM
CC(C)CC(CC1=CCC2CC1C2(C)C)C1=C(O)C(C)(C)C(=O)C(C)(C)C1=O (stereo not given)	0.227 µM	0.558 µM	0.354 µM	> 100 µM	0.303 µM	> 100 µM	0.424 µM	98.9 µM	0.286 µM	0.722 µM	0.24 µM	9.67 µM	0.334 µM	> 100 µM	0.321 µM	1.57 µM	0.336 µM	10.7 µM	0.205 µM	0.423 µM
Cc1ccc(-c2cc(-c3ccc(C)cc3)nc(NCCNc3ccnc4cc(Cl)ccc34)n2)cc1	1.85 µM	4.45 µM	1.72 µM	3.54 µM	1.75 µM	3.64 µM	1.78 µM	3.47 µM	1.9 µM	3.63 µM	1.48 µM	3.02 µM	1.82 µM	4.5 µM	1.91 µM	3.85 µM	1.83 µM	3.71 µM	2 µM	4.15 µM
O=[N+]([O-])c1cccc(-c2nc3sccn3c2-c2ccnc(NCCCNS(=O)(=O)c3cccc(F)c3)n2)c1	0.984 µM	4.18 µM	3.21 µM	21.9 µM	2.16 µM	8.48 µM	5.38 µM	52 µM	2.04 µM	5.98 µM	1.52 µM	4.24 µM	1.73 µM	> 100 µM	1.98 µM	7.34 µM	2.58 µM	11 µM	2.97 µM	8.57 µM
N/C(=N\N=C\c1ccc(-c2ccccc2)cc1)N[N+](=O)[O-]	4.04 µM	> 100 µM	7.07 µM	> 100 µM	1.47 µM	> 100 µM	> 100 µM	> 100 µM	4.82 µM	> 100 µM	1.06 µM	6.62 µM	0.481 µM	> 100 µM	9.2 µM	> 100 µM	5.75 µM	> 100 µM	1.9 µM	7.58 µM
COc1cccc(C=Nc2cc(C)ccn2)c1O.COc1cccc(C=Nc2cc(C)ccn2)c1O.[Cu]	17.6 µM	> 100 µM	14.6 µM	42.2 µM	19.7 µM	62.8 µM	19.8 µM	42 µM	21.1 µM	53.2 µM	18.8 µM	44.9 µM	18.2 µM	68.1 µM	19 µM	49.4 µM	8.53 µM	30.9 µM	1.75 µM	14.2 µM
COc1ccc(NC(=O)/C(=N\NC(=O)C[n+]2ccccc2)c2c(O)c3ccc(O)cc3oc2=O)c([N+](=O)[O-])c1	–	> 100 µM	–	> 100 µM	–	> 100 µM	–	> 100 µM	–	> 100 µM	–	> 100 µM	–	> 100 µM	–	> 100 µM	–	> 100 µM	–	> 100 µM
COC(=O)C(Cc1ccccc1)NC(=O)NC(=O)NC(=O)CI (stereo not given)	2.69 µM	7.71 µM	14.1 µM	30.4 µM	4.2 µM	28.5 µM	4.12 µM	14.7 µM	16.4 µM	30.7 µM	16.2 µM	36.7 µM	2.09 µM	5.08 µM	6.79 µM	28.2 µM	1.56 µM	3.23 µM	–	–
CN(C)c1ccc2c(c1)Sc1cc(N(C)C)ccc1N2C(=O)c1ccccc1	76.1 µM	> 100 µM	30.3 µM	> 100 µM	37 µM	> 100 µM	–	–	–	–	15.4 µM	66.3 µM	2.69 µM	> 100 µM	27.7 µM	> 100 µM	24.2 µM	> 100 µM	4.5 µM	> 100 µM
Cc1ccc(C(=O)Nc2ccc(CN3CCN(C)CC3)c(C(F)(F)F)c2)cc1C#Cc1cnc2cccnn12	0.627 µM and 1.15 µM	3.01 µM and 4.26 µM	0.474 µM and 0.73 µM	2.06 µM and 4.27 µM	0.72 µM and 1.29 µM	2.17 µM and 4.42 µM	0.419 µM and 0.649 µM	1.37 µM and 2.88 µM	0.217 µM and 0.492 µM	0.579 µM and 1.43 µM	0.377 µM and 1.02 µM	1.66 µM and 3.03 µM	–	–	0.964 µM	4.15 µM	0.178 µM and 0.336 µM	0.973 µM and 1.16 µM	0.422 µM and 0.44 µM	1.58 µM and 3.88 µM
c1ccc2c(c1)c(NCCCCN1CCCCC1)cc1c3ccccc3c(NCCCCN3CCCCC3)cc21	3.85 µM	74.5 µM	14.1 µM	32.1 µM	4.76 µM	23.2 µM	22.1 µM	48.9 µM	69.3 µM	> 100 µM	–	–	7.85 µM	> 100 µM	20.5 µM	44.5 µM	11.2 µM	28.2 µM	19.7 µM	> 100 µM
C/C(=N\Nc1ccc2ccccc2n1)c1ccccn1	0.0897 µM	2.89 µM	0.0489 µM	10.8 µM	0.102 µM	5.21 µM	0.197 µM	16.1 µM	0.263 µM	9.01 µM	0.123 µM	17.6 µM	–	1.68 µM	0.156 µM	13.6 µM	0.0627 µM	1.42 µM	–	–
COc1cccc(NC(=O)c2sc3nc4c(cc3c2N)CN(Cc2ccccc2)CC4)c1	38.9 µM	> 100 µM	3.66 µM	20.7 µM	0.62 µM	> 100 µM	4.82 µM	21.6 µM	10.3 µM	44.5 µM	1.73 µM	4.71 µM	0.53 µM	> 100 µM	7.18 µM	49.2 µM	4.09 µM	43.5 µM	–	–
CN(C)CCCN1c2ccccc2CCc2ccc(Cl)cc21	2.62 µM	8.26 µM	4.92 µM	18.2 µM	1.76 µM	3.66 µM	13.3 µM	27.2 µM	3.01 µM	7.51 µM	1.7 µM	8.77 µM	–	–	7.51 µM	21.9 µM	2.31 µM	8.16 µM	3.63 µM	13.2 µM
COc1ccc(C(OCC2OC(n3ccc(NC(=O)c4ccccc4)nc3=O)C(O)C2O)(c2ccccc2)c2ccccc2)cc1 (stereo not given)	–	4.64 µM	–	19.8 µM	–	4.26 µM	–	–	–	6.68 µM	–	22 µM	–	5.58 µM	–	3 µM	–	–	–	4.36 µM
